Tested on: PC3 cells
Assay: NAMPT Cell Proliferation Assay
Assay type: cell-based
Details: Homo sapiens, PC-3, 120 h, 5 days incubation, cell viability by Cell Titer Glo
Protocol: NAMPT Cell Proliferation Assay
PC3 cells were seeded in 96-well black plates (Corning #3904) at 500 cells/well in 90 μl of RPMI media containing 10% heat-inactivated FBS and incubated overnight at 37° C. and 5% CO2 to allow cells to attach to wells. The following day, test compounds were serially diluted in neat DMSO to 1000× final concentrations prior to dilution with RPMI media to 10× and 1% DMSO. Ten μL of the 10× compounds were then transferred to wells containing cells to produce a dose response of 10-fold dilutions from 10 μM to 1×10^−5 μM. Cells were incubated for 5 days at 37° C. and 5% CO2, then cell viability was measured using Cell Titer Glo reagent (Promega #G7571). Percent inhibition values were calculated and fitted to a sigmoidal dose response curves using Assay Explorer software to determine IC50s.

**Q.** `O=C(NCc1cn2ccnc2cn1)c1ccc(C2CCN(C(=O)c3ccccc3F)CC2)s1` [Example 827, 5-[1-(2-fluorobenzoyl)piperidin-4-yl]-N-(imidazo[1,2-a]pyrazin-6-ylmethyl)thiophene-2-carboxamide] was tested. Which IC50 did it give?
**A.** 0.625 nM

**Q.** How did the IC50 turn out when `O=C(NCc1cn2ccnc2cn1)c1ccc(C2CCN(C(=O)c3ccc(F)cc3)CC2)s1` [Example 828, 5-[1-(4-fluorobenzoyl)piperidin-4-yl]-N-(imidazo[1,2-a]pyrazin-6-ylmethyl)thiophene-2-carboxamide] was run?
**A.** 6.44 nM

**Q.** For `O=C(NCc1cn2ccnc2cn1)c1ccc(C2CCN(C(=O)c3ccc(F)cc3F)CC2)s1` [Example 829, 5-[1-(2,4-difluorobenzoyl)piperidin-4-yl]-N-(imidazo[1,2-a]pyrazin-6-ylmethyl)thiophene-2-carboxamide], which IC50 is on record?
**A.** 1.77 nM

**Q.** How did the IC50 turn out when `O=C(NCc1cn2ccnc2cn1)c1ccc(C2CCN(C(=O)c3cc(F)ccc3F)CC2)s1` [Example 830, 5-[1-(2,5-difluorobenzoyl)piperidin-4-yl]-N-(imidazo[1,2-a]pyrazin-6-ylmethyl)thiophene-2-carboxamide] was run?
**A.** 0.269 nM

**Q.** With `O=C(NCc1ccc2ncnn2c1)c1ccc(C2CCN(C(=O)c3ccccc3F)CC2)s1` [Example 831, 5-[1-(2-fluorobenzoyl)piperidin-4-yl]-N-([1,2,4]triazolo[1,5-a]pyridin-6-ylmethyl)thiophene-2-carboxamide] as the molecule, how does the IC50 read?
**A.** 0.886 nM

**Q.** For `O=C(NCc1ccc2ncnn2c1)c1ccc(C2CCN(C(=O)c3cccc(F)c3)CC2)s1` [Example 832, 5-[1-(3-fluorobenzoyl)piperidin-4-yl]-N-([1,2,4]triazolo[1,5-a]pyridin-6-ylmethyl)thiophene-2-carboxamide], which IC50 is on record?
**A.** 10.1 nM

**Q.** For `O=C(NCc1ccc2ncnn2c1)c1ccc(C2CCN(C(=O)c3ccc(F)cc3)CC2)s1` [Example 833, 5-[1-(4-fluorobenzoyl)piperidin-4-yl]-N-([1,2,4]triazolo[1,5-a]pyridin-6-ylmethyl)thiophene-2-carboxamide], which IC50 is on record?
**A.** 70 nM

**Q.** How did the IC50 turn out when `O=C(NCc1ccc2ncnn2c1)c1ccc(C2CCN(C(=O)c3ccc(F)cc3F)CC2)s1` [Example 834, 5-[1-(2,4-difluorobenzoyl)piperidin-4-yl]-N-([1,2,4]triazolo[1,5-a]pyridin-6-ylmethyl)thiophene-2-carboxamide] was run?
**A.** 12.7 nM

**Q.** Which IC50 does the source give for `O=C(NCc1ccc2ncnn2c1)c1ccc(C2CCN(C(=O)c3cc(F)ccc3F)CC2)s1` [Example 835, 5-[1-(2,5-difluorobenzoyl)piperidin-4-yl]-N-([1,2,4]triazolo[1,5-a]pyridin-6-ylmethyl)thiophene-2-carboxamide] here?
**A.** 3.95 nM

**Q.** Which IC50 does the source give for `O=C(NCc1ccc2ncnn2c1)c1ccc(C2CCN(C(=O)c3cc(F)cc(F)c3)CC2)s1` [Example 836, 5-[1-(3,5-difluorobenzoyl)piperidin-4-yl]-N-([1,2,4]triazolo[1,5-a]pyridin-6-ylmethyl)thiophene-2-carboxamide] here?
**A.** 68.3 nM

**Q.** How did the IC50 turn out when `CC(C)C(=O)N1CCC(c2ccc(C(=O)NCc3cn4ccnc4cn3)s2)CC1` [Example 837, N-(imidazo[1,2-a]pyrazin-6-ylmethyl)-5-[1-(2-methylpropanoyl)piperidin-4-yl]thiophene-2-carboxamide] was run?
**A.** 2.77 nM

**Q.** For `CC(C)CC(=O)N1CCC(c2ccc(C(=O)NCc3cn4ccnc4cn3)s2)CC1` [Example 838, N-(imidazo[1,2-a]pyrazin-6-ylmethyl)-5-[1-(3-methylbutanoyl)piperidin-4-yl]thiophene-2-carboxamide], which IC50 is on record?
**A.** 2.7 nM

**Q.** Which IC50 does the source give for `CC1(C(=O)N2CCC(c3ccc(C(=O)NCc4cn5ccnc5cn4)s3)CC2)CC1` [Example 839, N-(imidazo[1,2-a]pyrazin-6-ylmethyl)-5-{1-[(1-methylcyclopropyl)carbonyl]piperidin-4-yl}thiophene-2-carboxamide] here?
**A.** 0.607 nM

**Q.** With `O=C(NCc1cn2ccnc2cn1)c1ccc(C2CCN(C(=O)CCC(F)(F)F)CC2)s1` [Example 840, N-(imidazo[1,2-a]pyrazin-6-ylmethyl)-5-[1-(4,4,4-trifluorobutanoyl)piperidin-4-yl]thiophene-2-carboxamide] as the molecule, how does the IC50 read?
**A.** 2.75 nM

From patent US9187472B2 (AbbVie Inc., priority 2012, dated 2015)
